Converted amounts (≈) assume the structure as drawn. Where two headings read alike, the source gives them in different places.
Key:
[1] = test system: Trypanosoma brucei rhodesiense STIB 900; experiment: In vitro assay for Trypanosoma brucei rhodesiense (resazurin); assay type: cell-based
Method: Trypanosoma brucei rhodesiense STIB 900 strain, isolated in 1982 from a human patient in Tanzania and, after several mouse passages, cloned and adapted to axenic culture conditions, was used in this assay. Minimum essential medium (50 μL) supplemented with 25 mM HEPES, 1 g/L additional glucose, 1% MEM non-essential amino acids (100×), 0.2 mM 2-mercaptoethanol, 1 mM Na-pyruvate, and 15% heat inactivated horse serum was added to each well of a 96 well microtiter plate. Serial drug dilutions of seven 3-fold dilution steps covering a range from 90 to 0.123 μg/mL were prepared, and then 4 × 10^4 blood stream forms of T. b. rhodesiense STIB 900 in 50 μL were added to each well and the plate was incubated at 37 °C under a 5% CO2 atmosphere for 72 h. Resazurin solution (resazurin, 12.5 mg in 100 mL double-distilled water) (10 μL) was then added to each well and incubated for a further 2–4 h. At the end of the assay, the plates were read with a Spectramax Gemini XS microplate fluorometer (Molecular Devices Cooperation, Sunnyvale, CA, USA) using an excitation wavelength of 536 nm and an emission wavelength of 588 nm. Data were analyzed using the microplate reader software Softmax Pro (Molecular Devices Cooperation, Sunnyvale, CA, USA). Melarsoprol was used as standard drug.

[2] = In vitro assay for cytotoxicity on mammalian cells (resazurin); assay type: cell-based, rat
Method: Assays were performed in 96 well microtiter plates (4 × 10^4 L6 cells/well), each well containing 100 μL of RPMI 1640 medium supplemented with 1% L-glutamine (200 mM) and 10% FBS. L6 cells are a primary cell line derived from rat skeletal myoblasts. Serial drug dilutions of seven 3-fold dilution steps covering a range from 90 to 0.123 μg/mL were prepared. After 72 h of incubation, the plates were inspected under an inverted microscope to assure growth of the controls and sterile conditions. Resazurin solution (10 μL) (12.5 mg resazurin in 100 mL double-distilled water) was then added to each well and the plates incubated for another 2 h. The plates were then read with a Spectramax Gemini XS microplate fluorometer (Molecular Devices Cooperation, Sunnyvale, CA, USA) using an excitation wavelength of 536 nm and an emission wavelength of 588 nm. Data were analyzed using the microplate reader software Softmax Pro (Molecular Devices Cooperation, Sunnyvale, CA, USA). From the sigmoidal inhibition curves, the IC50 values were calculated. Podophyllotoxin was the positive control.

[3] = test system: P. falciparium FCR-3 strain; parameters: method as in PMID 23082579; conditions: cited from earlier work
P. falciparum = test system: P. falciparum; parameters: method as in PMID 22441836; conditions: cited from earlier work
[4] = test system: L. infantum promastigotes; parameters: method as in PMID 31151304; conditions: 24 h MTT assay; cited from earlier work
T. cruzi epimastigotes = test system: T. cruzi epimastigotes; parameters: method as in PMID 17024354; conditions: 24 h incubation; cited from earlier work
T. cruzi trypomastigotes = test system: T. cruzi trypomastigotes; parameters: method as in PMID 17024354; conditions: 24 h incubation; cited from earlier work
[5] = test system: intracellular amastigotes of T.-cruzi-infected Vero cells; parameters: method as in PMID 20428679; conditions: cited from earlier work
Trypanosoma cruzi = test system: Trypanosoma cruzi; parameters: method as in earlier work; conditions: 200 mg/kg/day, intragastric route, 22nd day post-infection; cited from earlier work
[6] = test system: chloroquine-resistant P. falciparum strain; conditions: reported to be inactive; cited from earlier work
L. infantum = test system: L. infantum; parameters: method as in doi:10.1016/j.indcrop.2015.09.049; conditions: cited from earlier work

| Structure (SMILES) | IC50 ([1]; Trypanosoma brucei, 72 h, STIB 900 blood stream forms, 72 h; means of two independent determinations ± deviation from the mean; read-out: IC50 Trypanosoma brucei rhodesiense) [µg/mL] | IC50 at 72 h ([2]; L6 cells (rat skeletal myoblasts), rat skeletal myoblasts, 72 h, means of two determinations ± deviation, read-out: IC50 Cytotoxicity L6 cells) [µg/mL] | IC50 in vitro antimalarial activity [3] [µg/mL] | IC50 in vitro antimalarial activity (P. falciparum) [µg/mL] | IC50 L. infantum promastigotes [4] [µg/mL] | IC50 T. cruzi epimastigotes (T. cruzi epimastigotes) [µg/mL] | IC50 T. cruzi trypomastigotes (T. cruzi trypomastigotes) [µg/mL] | selective index ([5]; T.-cruzi-infected Vero cells) | IC50 intracellular amastigotes of T.-cruzi-infected Vero cells [5] [µg/mL] | parasitemia in T. cruzi infected albino mice (in words) (Trypanosoma cruzi) | IC50 ([1]; Trypanosoma brucei; STIB 900 blood stream forms, 72 h; means of two independent determinations ± deviation from the mean; read-out: IC50 Trypanosoma brucei rhodesiense) [µg/mL] | selectivity index (IC50 value against L6 mammalian cells/IC50 value against parasite) ([1]; against T. b. rhodesiense) | IC50 at 72 h ([2]; rat) [µg/mL] | IC50 [6] [mM] | IC50 L. infantum (L. infantum) [µg/mL] |
| --- | --- | --- | --- | --- | --- | --- | --- | --- | --- | --- | --- | --- | --- | --- | --- |
| Cc1ccc(C(C)C)c(O)c1 [Thymol] | 0.11 ± 0.01 (≈ 0.732 µM) | 51.8 ± 6.2 (≈ 345 µM) | 10 (≈ 66.6 µM) | 4.5 (≈ 30 µM) | 7.2 (≈ 47.9 µM) | 62 (≈ 413 µM) | 53 (≈ 353 µM) | greater than 10 | 3.2 | significant reduction in parasitemia | – | – | – | – | – |
| Cc1ccc(C(C)C)cc1O [Carvacrol] | – | – | 10 (≈ 66.6 µM) | – | 9.8 (≈ 65.2 µM) | – | – | – | – | – | 0.15 ± 0.04 (≈ 0.999 µM) | 327.5 | 48.8 ± 1.1 (≈ 325 µM) | > 1 | 7.35 (≈ 48.9 µM) |
